What was measured:
Orexin receptor type 2 [1] = biological target: T1, Orexin receptor type 2 (Homo sapiens, UniProt O43614); assay: Binding affinity to human OX2 receptor
T1 sequence (O43614 whole entry): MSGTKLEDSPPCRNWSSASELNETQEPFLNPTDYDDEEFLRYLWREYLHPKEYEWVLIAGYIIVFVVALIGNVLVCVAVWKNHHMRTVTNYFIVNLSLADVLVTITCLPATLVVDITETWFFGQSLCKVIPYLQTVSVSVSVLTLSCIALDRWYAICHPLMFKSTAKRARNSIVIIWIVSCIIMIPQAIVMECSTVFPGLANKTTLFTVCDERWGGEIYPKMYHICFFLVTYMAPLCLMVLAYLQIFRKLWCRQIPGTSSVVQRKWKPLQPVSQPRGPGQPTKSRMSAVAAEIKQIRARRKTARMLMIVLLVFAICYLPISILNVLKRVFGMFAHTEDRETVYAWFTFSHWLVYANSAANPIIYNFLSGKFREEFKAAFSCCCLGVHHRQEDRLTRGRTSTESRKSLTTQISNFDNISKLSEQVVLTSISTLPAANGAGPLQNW

[2] = biological target: T2, Orexin/Hypocretin receptor type 1 (Homo sapiens, UniProt O43613); assay: Binding affinity to human OX1 receptor
T2 sequence (O43613 whole entry): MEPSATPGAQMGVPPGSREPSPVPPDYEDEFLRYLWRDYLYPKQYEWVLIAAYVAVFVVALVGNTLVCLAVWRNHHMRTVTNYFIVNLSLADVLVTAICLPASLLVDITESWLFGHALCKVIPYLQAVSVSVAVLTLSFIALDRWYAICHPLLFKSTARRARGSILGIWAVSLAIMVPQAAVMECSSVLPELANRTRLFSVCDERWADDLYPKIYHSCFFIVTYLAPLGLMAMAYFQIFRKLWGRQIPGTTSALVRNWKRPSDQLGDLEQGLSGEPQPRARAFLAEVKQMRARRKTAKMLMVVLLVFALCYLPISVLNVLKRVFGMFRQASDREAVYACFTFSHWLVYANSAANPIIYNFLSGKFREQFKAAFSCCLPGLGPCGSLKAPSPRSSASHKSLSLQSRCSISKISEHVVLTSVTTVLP

[3] = biological target: Voltage-gated inwardly rectifying potassium channel KCNH2 (Homo sapiens, UniProt Q12809); assay: Inhibition of [3H]-astemizole binding to human ERG expressed in HEK293 cells
Voltage-gated inwardly rectifying potassium channel KCNH2, sequence (Q12809 whole entry): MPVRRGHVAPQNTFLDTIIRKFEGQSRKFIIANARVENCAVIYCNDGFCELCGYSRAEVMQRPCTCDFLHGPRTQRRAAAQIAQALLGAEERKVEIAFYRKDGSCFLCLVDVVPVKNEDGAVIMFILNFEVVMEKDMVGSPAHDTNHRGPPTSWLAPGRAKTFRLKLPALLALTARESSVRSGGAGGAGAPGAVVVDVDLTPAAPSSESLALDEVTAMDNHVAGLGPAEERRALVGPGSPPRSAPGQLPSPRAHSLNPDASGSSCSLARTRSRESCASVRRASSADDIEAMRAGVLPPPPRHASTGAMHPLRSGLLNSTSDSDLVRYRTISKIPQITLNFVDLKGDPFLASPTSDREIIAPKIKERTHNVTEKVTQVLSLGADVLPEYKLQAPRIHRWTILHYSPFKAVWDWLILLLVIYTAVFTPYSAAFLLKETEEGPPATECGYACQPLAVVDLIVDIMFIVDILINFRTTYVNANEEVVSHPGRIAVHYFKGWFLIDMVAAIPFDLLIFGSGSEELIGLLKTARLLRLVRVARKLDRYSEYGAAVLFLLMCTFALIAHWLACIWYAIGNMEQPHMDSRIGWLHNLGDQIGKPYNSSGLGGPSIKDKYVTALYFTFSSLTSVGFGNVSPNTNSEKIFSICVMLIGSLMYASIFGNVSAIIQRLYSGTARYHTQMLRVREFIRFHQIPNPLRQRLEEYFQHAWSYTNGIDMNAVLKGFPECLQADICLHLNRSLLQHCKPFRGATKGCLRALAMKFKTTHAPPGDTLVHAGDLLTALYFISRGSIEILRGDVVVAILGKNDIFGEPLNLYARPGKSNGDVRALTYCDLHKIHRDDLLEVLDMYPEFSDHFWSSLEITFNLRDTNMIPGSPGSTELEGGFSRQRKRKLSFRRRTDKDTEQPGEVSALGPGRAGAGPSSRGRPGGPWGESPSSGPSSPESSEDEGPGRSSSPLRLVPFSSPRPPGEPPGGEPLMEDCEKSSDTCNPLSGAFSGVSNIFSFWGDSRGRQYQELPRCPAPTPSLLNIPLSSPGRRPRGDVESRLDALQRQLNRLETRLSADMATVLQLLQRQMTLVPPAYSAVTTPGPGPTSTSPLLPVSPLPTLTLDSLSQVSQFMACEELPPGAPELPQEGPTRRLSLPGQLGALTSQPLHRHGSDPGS

Orexin receptor type 2 [4] = biological target: T3, Orexin receptor type 2 (Rattus norvegicus, UniProt P56719); assay: Binding affinity to rat OX2 receptor
T3 sequence (P56719 whole entry): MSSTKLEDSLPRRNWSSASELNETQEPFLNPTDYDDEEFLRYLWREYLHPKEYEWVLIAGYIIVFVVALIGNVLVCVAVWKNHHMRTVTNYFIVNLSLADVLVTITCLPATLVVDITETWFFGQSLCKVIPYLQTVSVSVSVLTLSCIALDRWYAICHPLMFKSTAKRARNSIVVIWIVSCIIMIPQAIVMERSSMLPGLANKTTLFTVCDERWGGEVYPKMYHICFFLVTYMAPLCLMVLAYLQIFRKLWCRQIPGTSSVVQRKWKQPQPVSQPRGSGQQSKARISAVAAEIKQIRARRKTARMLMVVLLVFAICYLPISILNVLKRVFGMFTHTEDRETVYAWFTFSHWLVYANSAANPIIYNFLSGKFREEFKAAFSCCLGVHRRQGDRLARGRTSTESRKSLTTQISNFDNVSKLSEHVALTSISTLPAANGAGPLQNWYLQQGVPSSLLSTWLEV

Structure (SMILES) | Ki (Orexin receptor type 2 [1]) [nM] | Ki [2] [nM] | IC50 [3] [nM] | Ki (Orexin receptor type 2 [4]) [nM]
O=C(c1ccccc1-c1cccs1)N1C[C@@H]2CN(c3nc4ccc(F)cc4s3)C[C@@H]2C1 | 137 | 267 | – | –
COc1ccc(-n2nccn2)c(C(=O)N2C[C@@H]3CN(c4nc(C)cc(C)n4)C[C@@H]3C2)c1 | – | – | 8100 | 38
O=C(c1ccccc1-c1ccccc1)N1C[C@@H]2CN(c3nc4ccccc4s3)C[C@@H]2C1 | 687 | 1400 | – | –
Cc1cc(C)nc(N2C[C@H]3CN(C(=O)c4ccccc4-c4cccc(F)c4)C[C@H]3C2)n1 | 180 | > 10000 | – | –
COc1ccc(C(=O)N2C[C@@H]3CN(c4nc5ccc(F)cc5s4)C[C@@H]3C2)c(OC)c1 | 746 | > 10000 | – | –
O=C(c1ccccc1-c1ccccc1)N1C[C@@H]2CN(c3nc4ccc(F)cc4s3)C[C@@H]2C1 | 294 | 925 | – | –
O=C(c1ccccc1-c1ccccc1)N1C[C@@H]2CN(c3nccc(-c4ccccc4)n3)C[C@@H]2C1 | 421 | 765 | – | –
CCOc1ccc2ccccc2c1C(=O)N1C[C@@H]2CN(c3nc(C)cc(C)n3)C[C@@H]2C1 | 27 | 557 | – | –
COc1ccc(C(=O)N2C[C@@H]3CN(c4nc5ccc(C)cc5s4)C[C@@H]3C2)c(OC)c1 | 680 | > 10000 | – | –
COc1cc(OC)nc(N2C[C@H]3CN(C(=O)c4ccccc4-c4cccs4)C[C@H]3C2)n1 | 41 | 257 | – | –
Cc1ccnc(N2C[C@H]3CN(C(=O)c4ccccc4-c4ccccc4)C[C@H]3C2)n1 | 899 | > 10000 | – | –
O=C(c1ccccc1-c1cccs1)N1C[C@@H]2CN(c3cnc4ccccc4n3)C[C@@H]2C1 | 106 | 623 | – | –
Cc1cc(C)nc(N2C[C@H]3CN(C(=O)c4c(C)cccc4-n4nccn4)C[C@H]3C2)n1 | – | – | 6900 | 12
COc1ccc(C(=O)N2C[C@@H]3CN(c4nc5ccc(Cl)cc5s4)C[C@@H]3C2)c(OC)c1 | 510 | 5300 | – | –
Cc1cc(C)nc(N2C[C@H]3CN(C(=O)c4cc(F)ccc4-n4nccn4)C[C@H]3C2)n1 | – | – | > 10000 | –
COc1ccc(C(=O)N2C[C@@H]3CN(c4nc5ccc(OC)cc5s4)C[C@@H]3C2)c(OC)c1 | 875 | > 10000 | – | –
Cc1cc(C)nc(N2C[C@H]3CN(C(=O)c4c(C)ccc5ccccc45)C[C@H]3C2)n1 | 51 | 1800 | – | –
O=C(c1ccccc1-c1ccccc1)N1C[C@@H]2CN(c3cnc4ccccc4n3)C[C@@H]2C1 | 240 | 1320 | – | –
COc1ccnc(N2C[C@H]3CN(C(=O)c4c(C)ccc5ccccc45)C[C@H]3C2)n1 | 141 | 3300 | – | –
O=C(c1ccccc1-n1cccn1)N1C[C@@H]2CN(c3cnc4ccccc4n3)C[C@@H]2C1 | 768 | > 10000 | – | –
